Measured values as given in the supplement of paper PMC10307832.

Tests used:
Test in all cases: relative viability (nuclei count vs DMSO), 5 days (fraction); higher = more cells survive
[1] = compound: Cc1ccc(C(=O)Nc2ccc(CN3CCN(C)CC3)c(C(F)(F)F)c2)cc1C#Cc1cnc2cccnn12 [Ponatinib] + Nc1ncn([C@H]2C[C@H](O)[C@@H](CO)O2)c(=O)n1 [Decitabine] (partner 2 µM)
In short: (§1)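 Relative viability was taken as the ratio of nuclei in treated wells to nuclei in vehicle wells. Lung cancer cell lines in 1536-well plates received compounds by pin tool one day after seeding, either one drug alone or a fixed anchor-drug dose plus five library-drug doses (not always all listed) in √10 steps. Nuclei were counted on 4× images after 5 days of treatment, and values are medians of duplicate plates.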

[2] = compound: Cc1ccc(C(=O)Nc2ccc(CN3CCN(C)CC3)c(C(F)(F)F)c2)cc1C#Cc1cnc2cccnn12 [Ponatinib] + CC(C)C[C@H](NC(=O)[C@H](Cc1ccccc1)NC(=O)c1cnccn1)B(O)O [Bortezomib] (partner 0.002 µM)
In short: as §1

[3] = compound: Cc1ccc(Nc2nccc(N(C)c3ccc4c(C)n(C)nc4c3)n2)cc1S(N)(=O)=O [Pazopanib] + CCNC(=O)c1noc(-c2cc(C(C)C)c(O)cc2O)c1-c1ccc(CN2CCOCC2)cc1 [Luminespib] (partner 0.01 µM)
In short: as §1

[4] = compound: Cc1ccc(Nc2nccc(N(C)c3ccc4c(C)n(C)nc4c3)n2)cc1S(N)(=O)=O [Pazopanib] + Cc1nc(Nc2ncc(C(=O)Nc3c(C)cccc3Cl)s2)cc(N2CCN(CCO)CC2)n1 [Dasatinib] (partner 0.075 µM)
In short: as §1

Cell Line: HCC-44
- relative viability ([1]; first compound 0.002 µM): 0.936
- relative viability ([1]; first compound 0.006325 µM): 0.976
- relative viability ([1]; first compound 0.06325 µM): 0.898
- relative viability ([1]; first compound 0.2 µM): 0.884
- relative viability ([2]; first compound 0.002 µM): 0.825
- relative viability ([2]; first compound 0.006325 µM): 0.804
- relative viability ([2]; first compound 0.06325 µM): 1.07
- relative viability ([2]; first compound 0.2 µM): 0.872
- relative viability ([3]; first compound 0.01 µM): 1.11
- relative viability ([3]; first compound 0.03162 µM): 1.07
- relative viability ([3]; first compound 0.1 µM): 1.07
- relative viability ([3]; first compound 0.3162 µM): 1.04
- relative viability ([3]; first compound 1 µM): 1.12

Cell Line: HCC-78
- relative viability ([1]; first compound 0.002 µM): 0.653
- relative viability ([1]; first compound 0.006325 µM): 0.757
- relative viability ([1]; first compound 0.06325 µM): 0.668
- relative viability ([1]; first compound 0.2 µM): 0.577
- relative viability ([2]; first compound 0.002 µM): 0.476
- relative viability ([2]; first compound 0.006325 µM): 0.48
- relative viability ([2]; first compound 0.06325 µM): 0.62
- relative viability ([2]; first compound 0.2 µM): 0.421
- relative viability ([4]; first compound 0.01 µM): 0.328
- relative viability ([4]; first compound 0.03162 µM): 0.383
- relative viability ([4]; first compound 0.1 µM): 0.362
- relative viability ([4]; first compound 0.3162 µM): 0.429
- relative viability ([4]; first compound 1 µM): 0.339

Cell Line: HCC-366
- relative viability ([1]; first compound 0.002 µM): 0.336
- relative viability ([1]; first compound 0.006325 µM): 0.317
- relative viability ([1]; first compound 0.06325 µM): 0.387
- relative viability ([1]; first compound 0.2 µM): 0.37
- relative viability ([2]; first compound 0.002 µM): 1.04
- relative viability ([2]; first compound 0.006325 µM): 1.13
- relative viability ([2]; first compound 0.06325 µM): 1.14
- relative viability ([2]; first compound 0.2 µM): 0.982
- relative viability ([4]; first compound 0.01 µM): 0.421
- relative viability ([4]; first compound 0.03162 µM): 0.655
- relative viability ([4]; first compound 0.1 µM): 0.762
- relative viability ([4]; first compound 0.3162 µM): 0.676
- relative viability ([4]; first compound 1 µM): 0.733

Cell Line: HCC-827
- relative viability ([1]; first compound 0.002 µM): 0.327
- relative viability ([1]; first compound 0.006325 µM): 0.385
- relative viability ([1]; first compound 0.06325 µM): 0.338
- relative viability ([1]; first compound 0.2 µM): 0.326
- relative viability ([2]; first compound 0.002 µM): 1
- relative viability ([2]; first compound 0.006325 µM): 1.01
- relative viability ([2]; first compound 0.06325 µM): 1.05
- relative viability ([2]; first compound 0.2 µM): 0.982
- relative viability ([3]; first compound 0.01 µM): 0.369
- relative viability ([3]; first compound 0.03162 µM): 0.778
- relative viability ([3]; first compound 0.1 µM): 0.747
- relative viability ([3]; first compound 0.3162 µM): 0.603
- relative viability ([3]; first compound 1 µM): 0.46
- relative viability ([4]; first compound 0.01 µM): 0.286
- relative viability ([4]; first compound 0.03162 µM): 0.27
- relative viability ([4]; first compound 0.1 µM): 0.284
- relative viability ([4]; first compound 0.3162 µM): 0.399
- relative viability ([4]; first compound 1 µM): 0.324

Cell Line: HOP-62
- relative viability ([1]; first compound 0.002 µM): 0.213
- relative viability ([1]; first compound 0.006325 µM): 0.168
- relative viability ([1]; first compound 0.06325 µM): 0.21
- relative viability ([1]; first compound 0.2 µM): 0.183
- relative viability ([2]; first compound 0.002 µM): 0.728
- relative viability ([2]; first compound 0.006325 µM): 0.571
- relative viability ([2]; first compound 0.06325 µM): 0.597
- relative viability ([2]; first compound 0.2 µM): 0.701
- relative viability ([3]; first compound 0.01 µM): 0.79
- relative viability ([3]; first compound 0.03162 µM): 0.89
- relative viability ([3]; first compound 0.1 µM): 0.915
- relative viability ([3]; first compound 0.3162 µM): 0.953
- relative viability ([3]; first compound 1 µM): 0.981
- relative viability ([4]; first compound 0.01 µM): 0.554
- relative viability ([4]; first compound 0.03162 µM): 0.713
- relative viability ([4]; first compound 0.1 µM): 0.681
- relative viability ([4]; first compound 0.3162 µM): 0.659
- relative viability ([4]; first compound 1 µM): 0.718

Cell Line: IA-LM
- relative viability ([2]; first compound 0.002 µM): 0.695
- relative viability ([2]; first compound 0.006325 µM): 0.623
- relative viability ([2]; first compound 0.06325 µM): 0.785
- relative viability ([2]; first compound 0.2 µM): 0.79

Cell Line: LK-2
- relative viability ([1]; first compound 0.002 µM): 0.301
- relative viability ([1]; first compound 0.006325 µM): 0.312
- relative viability ([1]; first compound 0.06325 µM): 0.273
- relative viability ([1]; first compound 0.2 µM): 0.274
- relative viability ([3]; first compound 0.03162 µM): 0.208
- relative viability ([3]; first compound 0.1 µM): 0.176
- relative viability ([3]; first compound 0.3162 µM): 0.168
- relative viability ([3]; first compound 1 µM): 0.219
- relative viability ([4]; first compound 0.03162 µM): 0.305
- relative viability ([4]; first compound 0.1 µM): 0.317
- relative viability ([4]; first compound 0.3162 µM): 0.373
- relative viability ([4]; first compound 1 µM): 0.314

Cell Line: NCI-H358
- relative viability ([1]; first compound 0.002 µM): 0.193
- relative viability ([1]; first compound 0.006325 µM): 0.326
- relative viability ([1]; first compound 0.06325 µM): 0.221
- relative viability ([1]; first compound 0.2 µM): 0.204
- relative viability ([3]; first compound 0.01 µM): 0.398
- relative viability ([3]; first compound 0.03162 µM): 0.374
- relative viability ([3]; first compound 0.1 µM): 0.284
- relative viability ([3]; first compound 0.3162 µM): 0.337
- relative viability ([3]; first compound 1 µM): 0.441
- relative viability ([4]; first compound 0.01 µM): 0.157
- relative viability ([4]; first compound 0.03162 µM): 0.152
- relative viability ([4]; first compound 0.1 µM): 0.158
- relative viability ([4]; first compound 1 µM): 0.258

Cell Line: NCI-H522
- relative viability ([1]; first compound 0.002 µM): 0.615
- relative viability ([1]; first compound 0.006325 µM): 0.64
- relative viability ([1]; first compound 0.06325 µM): 0.615
- relative viability ([1]; first compound 0.2 µM): 0.609
- relative viability ([3]; first compound 0.03162 µM): 0.912
- relative viability ([3]; first compound 0.1 µM): 1.13
- relative viability ([3]; first compound 0.3162 µM): 1.06
- relative viability ([3]; first compound 1 µM): 1.07
- relative viability ([4]; first compound 0.01 µM): 0.614
- relative viability ([4]; first compound 0.03162 µM): 0.865
- relative viability ([4]; first compound 0.1 µM): 0.968
- relative viability ([4]; first compound 0.3162 µM): 0.897
- relative viability ([4]; first compound 1 µM): 0.918

Cell Line: NCI-H1299
- relative viability ([2]; first compound 0.002 µM): 1.05
- relative viability ([2]; first compound 0.006325 µM): 1
- relative viability ([2]; first compound 0.06325 µM): 1.06
- relative viability ([2]; first compound 0.2 µM): 0.993

Cell Line: NCI-H1395
- relative viability ([1]; first compound 0.002 µM): 0.816
- relative viability ([1]; first compound 0.006325 µM): 0.714
- relative viability ([1]; first compound 0.06325 µM): 0.682
- relative viability ([1]; first compound 0.2 µM): 0.615
- relative viability ([3]; first compound 0.01 µM): 0.566
- relative viability ([3]; first compound 0.03162 µM): 0.588
- relative viability ([3]; first compound 0.1 µM): 0.642
- relative viability ([3]; first compound 0.3162 µM): 0.781
- relative viability ([3]; first compound 1 µM): 0.62
- relative viability ([4]; first compound 0.01 µM): 0.398
- relative viability ([4]; first compound 0.03162 µM): 0.487
- relative viability ([4]; first compound 0.1 µM): 0.362
- relative viability ([4]; first compound 0.3162 µM): 0.452
- relative viability ([4]; first compound 1 µM): 0.432
